Test results reported in patent US12038433B2, “Methods and apparatus for high-throughput screening for testing permeability and retention of compounds across biological barriers” (Board of Regents, The University of Texas System, priority 2019, dated 2024).

Key:
[1] = 96-well plate permeation study of doxycycline, skin measured with mass spec pen; assay type: in vitro ADME; conditions: 24 hours, different concentrations applied
Procedure: A permeation study was done using the 96-well plates screening method over a course of 24 hours. Doxycycline at different concentrations was used as a model drug. After 24 hours, the receptor fluid was removed, and the plates were disassembled. The mass spec pen (described by Zhang et al. and Sans et al.) was used to measure the amount of doxycycline on the top layers of the skin (epidermis side) and on the bottom layers of the skin (dermis side) by flipping the skin upside down (26, 27).

[2] = Feasibility in vitro permeation study using squared and flat 384-well plates; assay type: in vitro ADME; conditions: 8 h, between the 0.5 mg/ml SRB and the 0.05 mg/ml SRB applied, lateral diffusion present
Procedure: Feasibility studies were conducted using squared and flat 384-well plates with no ridges or projected wells. The plates were assembled the same way as presented in Example 4. […] […] […] Samples were taken after 8 h and measured using fluorescence in a plate reader.

[3] = HTS formulation screening, permeability of SRB across the skin into the receptor fluid (plate reader fluorescence); assay type: in vitro ADME, human; conditions: not statistically significant (FIG. 10 E)
Procedure: (§1) Two bottomless 96-well plates from Greiner bio-one were used.
(§2) The receptor plate was sealed with an adhesive film and overfilled with PBS (pH=7.4).
(§3) An 8×9 cm of skin tissue was placed on top of the receptor plate, dermis side in contact with the receptor fluid and stratum corneum up. The donor plate was placed on top of the skin. A 4 kg weight was placed on top and nuts were attached to the plate.
(§4) This sandwich was incubated for 1 hour at 32 deg C. and 75 rpm. After 1 hour, the formulations prepared in Table 1 and containing 0.5 mg/ml of SRB as a model hydrophilic drug were applied in triplicate to the donor wells.
(§5) The receptor compartment was analyzed by fluorescence using a plate reader and the skin was analyzed using 2 photon microscopy, the same way as described in Example 4. Images were collected at 256×256 pixels and 223.78 μm×223.78 μm. The z-axis profile was obtained by acquiring images at every 10 μm down the skin, up to 200 μm. The detailed 2-photon analysis utilized in this study took approximately 2 h (around a minute to 2 min for each well).

[4] = not tape-stripped; cited from earlier work
[5] = Skin retention analysis of SRB by two-photon-induced fluorescence imaging (FC vs HTS); assay type: in vitro ADME, human; conditions: surface down to 150 μm, after 8 h (FIG. 8)
From the text: A two-photon-induced fluorescence imaging was used to determine the retention of SRB in the skin using a Prairie Technologies Ultimalntravital 2PA confocal microscope system (Park et al., 2008; Denk et al., 1990). The microscope objective was an Olympus® 10×, 0.30 NA, UMPlanFL N water immersion lens. Two-photon laser excitation was provided by a Spectra-Physics Tsunami® Ti:Sapphire laser with a τP=150 fs and P=108 mW. The laser was tuned to 1000 nm, since SRB excites at 550 nm and no skin autofluorescence is observed at this wavelength. Four fluorescence channels were detected simultaneously during imaging. The photomultiplier tube (PMT) bias voltages for each channel were set to 650 V for channel 1, 650 V for channel 2 (where SRB is detected), 800 V for channel 3 (where we can measure the autofluorescence of the skin), and 800 V for channel 4. Skin autofluorescence or second harmonic generation of collagen were detected in channels 3 and 4, respectively (Roberts et al., 2011). The fluorescence emission of SRB was recorded in channel 2 (λ=595±35 nm) since the wavelength of emission for SRB is 590 nm. Skin images were recorded above the surface of the skin and the maximum fluorescence intensity was considered to be the top layer or surface of the skin since excess of formulation was still present at the top of the skin at the end of the permeation study (8 h). […]

[6] = HTS formulation screening, retention of SRB in skin layers by 2 photon microscopy (3x2x3 full factorial design); assay type: in vitro ADME, human
Procedure: as §1, §2, §3, §4, §5
A 3×2×3 full factorial design was used to design the experiment and statistically analyze the differences in permeation and retention of the formulations applied in the skin.

[7] = Permeation of SRB across tape-stripped skin, 96-well HTS compared with Franz cells, receptor fluid fluorescence; assay type: in vitro ADME, human; conditions: SRB 0.5 mg/ml, 8 h, 32° C., p-value >0.05 (FIG. 7)
From the text: “The 96-well plates, with and without bottom, were modified by inserting 2 symmetric and parallel holes in each side of the plate using a drill. The holes were made in order to attach the plates together as a sandwich. The skin was tape-stripped 15 times, rubbing with a thumb three times before each strip (in the same manner as for the Franz cells). Tape-stripping was necessary to allow for drug permeation across the skin and direct quantification in the receptor compartment. […] The receptor fluid analysis was needed to compare permeability of SRB between methods (FC and HTS).”
“The 96-well plate with the bottom was used as the receptor compartment. The volume of each well is 380 μL and the area of diffusion is 0.38 cm^2. The receptor compartment was overfilled with degassed PBS (pH=7.4) to avoid the formation of any bubbles that would hinder drug permeation. […]
The plate was incubated at 32° C. for 1 h. […] After 8 h, the plates were disassembled and the receptor plate was analyzed using a spectrophotometer (Infinite M200 microplate reader, TECAN US Inc, NC, USA) for the quantification of fluorescence intensity (λexcitation=550 nm and λemission=590 nm). Standard solutions of SRB in PBS (pH=7.4) in the range of 500-0.03 μg/ml were prepared and the fluorescence intensity was measured to obtain the calibration curve. […]

Row | permeation, amount on top (epidermis side) and bottom (dermis side) layers of the skin [1] | permeability of SRB across the skin [2] | amount of drug across the skin, into the receptor solution ([3]; OA (oleic acid) in the formulation) | amount of SRB across the skin ([3]; increasing the concentration of Tween 80) | depth profile/Z-axis profile, relative change in fluorescence intensity over every 5 μm depth in the skin, FC vs HTS [5] | Statistically significant variables on the amount of SRB retained ([6]; skin depth 0 μm, solvent ratio factor) | Statistically significant variables on the amount of SRB retained ([6]; skin depth 0 μm, surfactant concentration factor) | Statistically significant variables on the amount of SRB retained ([6]; skin depth 20 μm, solvent ratio factor) | Statistically significant variables on the amount of SRB retained ([6]; skin depth 20 μm, surfactant concentration factor) | Statistically significant variables on the amount of SRB retained ([6]; skin depth 100 μm, solvent ratio factor) | Statistically significant variables on the amount of SRB retained ([6]; skin depth 100 μm, surfactant concentration factor) | Statistically significant variables on the amount of SRB retained ([6]; skin depth 150 μm) | permeation and distribution of the drug, Franz cells (FC) vs HTS [7] | Compound | permeation across intact skin [4] | amount of SRB inside the skin ([6]; 5% and 2.5% surfactant concentration compared to no surfactant, post hoc analysis) | amount of the model drug in the skin layers ([6]; DMSO alone compared to 50:50 mixture of DMSO:Propylene glycol) | amount of SRB into the skin ([6]; DMSO compared to Propylene glycol alone, only at lower depths (100-150 micrometers)) | amount of drug inside the skin ([6]; OA (oleic acid) in the formulation, PG solvent (FIG. 10 A, B)) | amount of SRB inside the skin ([6]; increasing the concentration of Tween 80, PG solvent (FIG. 10 C, D))
1 | Changes in permeation were detected | – | – | – | – | – | – | – | – | – | – | – | – | C[C@H]1c2cccc(O)c2C(=O)C2=C(O)[C@]3(O)C(=O)C(C(N)=O)=C(O)[C@@H](N(C)C)[C@@H]3[C@@H](O)[C@@H]21 [Doxycycline] | – | – | – | – | – | –
2 | – | changed | also across the skin | not across the skin | similar | Solvent ratio (*) | Surfactant concentration (**) | Solvent ratio (**) | Surfactant concentration (*) | Solvent ratio (**) | Surfactant concentration (*) | Solvent ratio (**) | almost identical | CCN(CC)c1ccc2c(-c3ccc(S(=O)(=O)O)cc3S(=O)(=O)[O-])c3ccc(=[N+](CC)CC)cc-3oc2c1 [SRB, Sulforhodamine B] | unable to permeate intact skin | increases the amount of SRB inside the skin | enhances the amount of the model drug in all the skin layers | significantly enhance the amount of SRB into the skin | increased the amount of drug inside the skin | increased the amount of SRB inside the skin
